These are literature values, as cited in patent US11555049B2, “Method for separation and purification of n-acetylglucosamine” (JIANGSU HARVERS BIOTECH CO., LTD., priority 2020, dated 2023).

Converted amounts (≈) assume the structure as drawn.

As for `CC(=O)N[C@H]1C(O)O[C@H](CO)[C@@H](O)[C@@H]1O` (some centres unmarked) [GlcNAc, N-acetyl-glucosamine], the solubility in water (0° C. water) is 140 mg/mL (≈ 633 mM). Besides, the “solubility in organic solvents” value (organic solvents such as ethanol and propanol) was “insoluble”.
